Measured values published in ChEMBL document CHEMBL1165944, “Synthesis and biological evaluation of a new series of berberine derivatives as dual inhibitors of acetylcholinesterase and butyrylcholinesterase” (Bioorg Med Chem, 2010).

What was measured:
Acetylcholinesterase = Acetylcholinesterase (Electrophorus electricus, UniProt O42275); experiment: Inhibition of electric eel AChE by Ellman's assay
Cholinesterase = Cholinesterase (Equus caballus, UniProt P81908); experiment: Inhibition of equine serum BuChE by Ellman's method
Sequence of Cholinesterase (P81908 whole entry): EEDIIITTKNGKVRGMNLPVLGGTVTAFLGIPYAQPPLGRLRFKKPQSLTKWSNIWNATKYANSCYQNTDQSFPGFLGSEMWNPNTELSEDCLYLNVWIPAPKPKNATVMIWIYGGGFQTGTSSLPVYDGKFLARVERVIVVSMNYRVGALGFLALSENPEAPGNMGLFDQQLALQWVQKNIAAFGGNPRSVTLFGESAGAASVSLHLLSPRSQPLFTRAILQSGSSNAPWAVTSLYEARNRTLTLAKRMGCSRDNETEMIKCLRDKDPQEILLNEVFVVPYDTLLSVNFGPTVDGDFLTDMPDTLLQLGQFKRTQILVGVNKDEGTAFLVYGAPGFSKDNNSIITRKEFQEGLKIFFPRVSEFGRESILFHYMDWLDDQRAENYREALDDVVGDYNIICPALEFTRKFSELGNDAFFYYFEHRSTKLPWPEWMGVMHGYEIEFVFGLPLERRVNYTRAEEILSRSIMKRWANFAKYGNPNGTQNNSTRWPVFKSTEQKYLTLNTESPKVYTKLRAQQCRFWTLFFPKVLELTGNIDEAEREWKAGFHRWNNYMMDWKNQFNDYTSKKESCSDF

Sequence of Acetylcholinesterase (O42275 whole entry): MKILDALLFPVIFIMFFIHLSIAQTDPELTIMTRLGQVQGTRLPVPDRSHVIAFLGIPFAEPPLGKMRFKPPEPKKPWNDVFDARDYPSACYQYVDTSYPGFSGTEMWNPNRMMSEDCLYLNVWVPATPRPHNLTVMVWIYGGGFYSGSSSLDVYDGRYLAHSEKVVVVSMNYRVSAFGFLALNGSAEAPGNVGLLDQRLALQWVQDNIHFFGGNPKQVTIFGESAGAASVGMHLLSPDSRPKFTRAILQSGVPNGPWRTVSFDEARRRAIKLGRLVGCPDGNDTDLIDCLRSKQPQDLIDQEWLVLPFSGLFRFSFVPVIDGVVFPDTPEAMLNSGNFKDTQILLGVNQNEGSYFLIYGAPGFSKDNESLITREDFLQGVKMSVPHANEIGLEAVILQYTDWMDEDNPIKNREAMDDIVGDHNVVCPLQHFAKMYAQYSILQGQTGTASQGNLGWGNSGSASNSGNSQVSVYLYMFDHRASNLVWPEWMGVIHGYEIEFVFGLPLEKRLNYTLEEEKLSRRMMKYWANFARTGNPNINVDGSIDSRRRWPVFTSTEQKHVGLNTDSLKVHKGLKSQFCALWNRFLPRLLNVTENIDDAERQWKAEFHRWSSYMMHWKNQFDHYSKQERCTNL

| SMILES | IC50 (Acetylcholinesterase) [nM] | IC50 (Cholinesterase) [nM] |
| --- | --- | --- |
| COc1ccc2cc3[n+](cc2c1OCCCCOc1ccc(Cl)cc1)CCc1cc2c(cc1-3)OCO2 | 1500 | – |
| COc1ccc2cc3[n+](cc2c1OCCCOc1c(OC)ccc2cc4[n+](cc12)CCc1cc2c(cc1-4)OCO2)CCc1cc2c(cc1-3)OCO2 | 226 | – |
| COc1ccc2cc3[n+](cc2c1OCCCCOc1ccccn1)CCc1cc2c(cc1-3)OCO2 | 340 | – |
| COc1ccc2cc3[n+](cc2c1OCCCOc1ccc(Br)cc1)CCc1cc2c(cc1-3)OCO2 | 265 | – |
| COc1ccc2cc3[n+](cc2c1OCCCSc1ccc2ccccc2c1)CCc1cc2c(cc1-3)OCO2 | 500 | – |
| COc1ccc2cc3[n+](cc2c1OCCCCOc1c(OC)ccc2cc4[n+](cc12)CCc1cc2c(cc1-4)OCO2)CCc1cc2c(cc1-3)OCO2 | 176 | – |
| COc1ccc2cc3[n+](cc2c1OCCCOc1ccc(Cl)cc1)CCc1cc2c(cc1-3)OCO2 | 715 | – |
| COc1ccc2cc3[n+](cc2c1OCCCCSc1ccc2ccccc2c1)CCc1cc2c(cc1-3)OCO2 | 1350 | – |
| COc1ccc2cc3[n+](cc2c1OCCCOc1ccc(C)cc1)CCc1cc2c(cc1-3)OCO2 | 878 | – |
| COc1ccc2cc3[n+](cc2c1OCCC(=O)Nc1ccc(C)cc1)CCc1cc2c(cc1-3)OCO2 | 1460 | – |
| COc1ccc2cc3[n+](cc2c1OCCCOc1ccc2ccccc2c1)CCc1cc2c(cc1-3)OCO2 | 359 | – |
| COc1ccc2cc3[n+](cc2c1OCCCN(C)c1ccccc1)CCc1cc2c(cc1-3)OCO2 | 156 | – |
| COc1ccc(NC(=O)CCOc2c(OC)ccc3cc4[n+](cc23)CCc2cc3c(cc2-4)OCO3)cc1 | 2800 | – |
| COc1ccc2cc3[n+](cc2c1OCCC(=O)Nc1ccc(Cl)cc1)CCc1cc2c(cc1-3)OCO2 | 3860 | – |
| COc1ccc2cc3[n+](cc2c1OCC[n+]1ccccc1)CCc1cc2c(cc1-3)OCO2 | 196 | – |
| COc1ccc2cc3[n+](cc2c1OCCC(=O)Nc1ccccc1)CCc1cc2c(cc1-3)OCO2 | 535 | – |
| COc1ccc2cc3[n+](cc2c1OCC[n+]1cccc(C)c1)CCc1cc2c(cc1-3)OCO2 | 48 | – |
| COc1ccc2cc3[n+](cc2c1OCCCOc1ccc([N+](=O)[O-])cc1)CCc1cc2c(cc1-3)OCO2 | 400 | – |
| COc1ccc2cc3[n+](cc2c1OCCCCOc1ccc(Br)cc1)CCc1cc2c(cc1-3)OCO2 | 743 | – |
| COc1ccc2cc3[n+](cc2c1OCCCCOc1ccc2ccccc2c1)CCc1cc2c(cc1-3)OCO2 | 1900 | – |
| COc1ccc2cc3[n+](cc2c1OCCOc1c(OC)ccc2cc4[n+](cc12)CCc1cc2c(cc1-4)OCO2)CCc1cc2c(cc1-3)OCO2 | 320 | – |
| COc1ccc(OCCCOc2c(OC)ccc3cc4[n+](cc23)CCc2cc3c(cc2-4)OCO3)cc1 | 1000 | – |
| COc1ccc2cc3[n+](cc2c1OCCCNc1ccccc1)CCc1cc2c(cc1-3)OCO2 | 138 | – |
| COc1ccc2cc3[n+](cc2c1OCCC[n+]1ccccc1)CCc1cc2c(cc1-3)OCO2 | 359 | – |
| COc1ccc2cc3[n+](cc2c1OCCCCOc1ccc([N+](=O)[O-])cc1)CCc1cc2c(cc1-3)OCO2 | 490 | – |
| COc1ccc2cc3[n+](cc2c1OCCC[n+]1cccc(C)c1)CCc1cc2c(cc1-3)OCO2 | 152 | – |
| COc1ccc(OCCCCOc2c(OC)ccc3cc4[n+](cc23)CCc2cc3c(cc2-4)OCO3)cc1 | 748 | – |
| COc1ccc2cc3[n+](cc2c1OCCC(=O)Nc1ccc([N+](=O)[O-])cc1)CCc1cc2c(cc1-3)OCO2 | 6500 | 5530 |
